# Results as given in the C3SDB collision cross section collection.
# Details: [M+H]+; instrument: TW; Major Mix IMS/Tof Calibration Kit (Waters)
row,Structure (SMILES),collision cross section (N2) [Å²]
1,CN1CC[C@]23c4c5ccc(O)c4O[C@H]2C(=O)CC[C@@]3(O)[C@H]1C5 [Oxymorphone],164.6
2,CN/C(=N\C#N)NCCSCc1nc[nH]c1C [Cimetidine],156.5
3,CN1[C@H]2CC[C@@H]1[C@@H](C(=O)O)[C@@H](OC(=O)c1ccccc1)C2 [Benzoylecgonine],167.3
4,O=C(NCCN1CCOCC1)c1ccc(Cl)cc1 [Moclobemide],162.5
5,Clc1cccc(N2CCNCC2)c1 [mCPP],144.3
6,CN1CCN(C2=Nc3cc(Cl)ccc3Nc3ccccc32)CC1 [Clozapine],178.8
7,CCN(C(C)=O)c1cccc(-c2ccnc3c(C#N)cnn23)c1 [Zaleplon],173.5
8,CC(=O)c1ccc2c(c1)N(CCCN(C)C)c1ccccc1S2 [Acepromazine],176.6
9,CN1CC(=O)N2[C@H](c3ccc4c(c3)OCO4)c3[nH]c4ccccc4c3C[C@@H]2C1=O [Tadalafil],189.4
10,Cc1ccc(-c2nc3ccc(C(=O)O)cn3c2CC(=O)N(C)C)cc1 [Zolpidem-M 2],181.4
11,CC(C)(O)c1ccccc1CC[C@@H](SCC1(CC(=O)O)CC1)c1cccc(/C=C/c2ccc3ccc(Cl)cc3n2)c1 [Montelukast],243
12,NC(=O)c1cn(Cc2c(F)cccc2F)nn1 [Rufinamide],148.6
13,CNCCCC1(C2=CC=CC=C32)CC[C@H]3C4=CC=CC=C14 [Maprotiline],164.2
14,CCOC(=O)C1(c2ccccc2)CCN(C)CC1 [Pethidine],158.5
15,CN1CC[C@]23c4c5ccc(O)c4O[C@H]2[C@@H](O)CC[C@H]3[C@H]1C5 [Dihydromorphine],163.6
16,CN(C)CCOC(C)(c1ccccc1)c1ccccn1 (centres undefined) [Doxylamine],161.9
17,COc1cccc([C@@]2(O)CCCC[C@@H]2CN(C)C)c1 [Tramadol],161.4
18,CN1C(=O)CN=C(c2ccccc2F)c2cc([N+](=O)[O-])ccc21 [Flunitrazepam],168.6
19,CCCCNC(=O)NS(=O)(=O)c1ccc(C)cc1 [Tolbutamide],163
20,O=C1CN=C(c2ccccc2)c2cc([N+](=O)[O-])ccc2N1 [Nitrazepam],163.6
21,COCCc1ccc(OCC(O)CNC(C)C)cc1 (centres undefined) [Metoprolol],172.7
22,C[C@]12CCC(=O)C=C1CC[C@@H]1[C@@H]2CC[C@@]2(C)[C@H]1CC[C@]2(C)O [Methyltestosterone],176

row,Structure (SMILES),collision cross section (N2) [Å²]
1,CN1CC[C@]23CCCC[C@H]2[C@H]1Cc1ccc(O)cc13 [Levorphanol],161.7
2,CC(C)(C)NCC(O)c1cc(O)cc(O)c1 (centres undefined) [Terbutaline],154.9
3,Cc1nn(C)c2c1C(c1ccccc1F)=NCC(=O)N2C [Zolazepam],162.3
4,Clc1ccc2nsnc2c1NC1=NCCN1 [Tizanidine],149.4
5,NC1CC1c1ccccc1 (centres undefined) [Tranylcypromine],127.6
6,Cc1nnc2n1-c1ccc(Cl)cc1C(c1ccccc1Cl)=NC2 [Triazolam],172.4
7,CCOC(=O)[C@H](CCc1ccccc1)N[C@@H](C)C(=O)N1[C@H](C(=O)O)C[C@H]2CCCC[C@@H]21 [Trandolapril],203.5
8,Cc1ccc(-c2nc3ccc(C)cn3c2CC(=O)N(C)C)cc1 [Zolpidem],177.2
9,CNCCCN1c2ccccc2Sc2ccc(Cl)cc21 [Chlorpromazine-M norl],168.7
10,CC(NC(C)(C)C)C(=O)c1cccc(Cl)c1 (centres undefined) [Bupropion],157.8
11,OCCN1CCN(C(c2ccccc2)c2ccc(Cl)cc2)CC1 (centres undefined) [Cetirizine-M O-desalkyl],186.2
12,COc1ccc(Cl)cc1C(=O)NCCc1ccc(S(=O)(=O)NC(=O)NC2CCCCC2)cc1 [Glyburide],204.7
13,COc1cc(CCN)c(OC)cc1Br [2C-B],155.6
14,Cc1cccc(C)c1NC(=O)C1CCCCN1C (centres undefined) [Mepivacaine],159.1
15,CC(=O)CC(c1ccccc1)c1c(O)c2ccccc2oc1=O (centres undefined) [Warfarin],166.8
16,CN(C)CCc1c[nH]c2ccc(C[C@H]3COC(=O)N3)cc12 [Zolmitriptan],160.6
17,CC1CCN(CCCC(=O)c2ccc(F)cc2)CC1 [Melperone],163.5
18,CC(CCc1ccccc1)NCC(O)c1ccc(O)c(C(N)=O)c1 (centres undefined) [Labetalol],178.1
19,CC(=O)Nc1ccc(O)cc1 [Paracetamol],132.2
20,CN(C)CCc1c[nH]c2ccc(Cn3cncn3)cc12 [Rizatriptan],160.3
21,C=CCOc1ccccc1OCC(O)CNC(C)C (centres undefined) [Oxprenolol],161.7
22,COc1ccc2[nH]cc(CCNC(C)=O)c2c1 [Melatonin],153.4

row,Structure (SMILES),collision cross section (N2) [Å²]
1,COc1ccc([C@@H]2Sc3ccccc3N(CCN(C)C)C(=O)[C@@H]2O)cc1 [Diltiazem-M deacetyl],186.3
2,O=S1c2ccccc2/C(=C\CCN2CCN(CCO)CC2)c2cc(C(F)(F)F)ccc21 (centres undefined) [Flupentixol-M sulphoxide],196.8
3,CN(C)CCC=C1c2ccccc2CSc2ccccc21 [Dosulepin],167.3
4,CN(C)CCC=C1c2ccccc2C=Cc2ccccc21 [Cyclobenzaprine],164.7
5,CC(C)CC(N(C)C)C1(c2ccc(Cl)cc2)CCC1 (centres undefined) [Sibutramine],168
6,Cc1ccc(-c2cc(C(F)(F)F)nn2-c2ccc(S(N)(=O)=O)cc2)cc1 [Celecoxib],186.4
7,COC(=O)[C@@H]1CC2=CC(=O)CC[C@]2(C)[C@@]23O[C@@H]2C[C@@]2(C)[C@@H](CC[C@@]24CCC(=O)O4)[C@H]13 [Eplerenone],197.6
8,CCCc1nc(C)c2c(=O)nc(-c3cc(S(=O)(=O)N4CCN(CC)CC4)ccc3OCC)[nH]n12 [Vardenafil],225.8
9,CN1C(=O)C(O)N=C(c2ccccc2)c2cc(Cl)ccc21 (centres undefined) [Temazepam],166.1
10,COc1ncnc(NS(=O)(=O)c2ccc(N)cc2)c1OC [Sulfadoxine],165.3
11,CNC(C)C(=O)c1ccc2c(c1)OCO2 (centres undefined) [Methylone],147.3
12,COc1ccc2c3c1O[C@H]1C(OC(C)=O)=CC[C@H]4[C@@H](C2)N(C)CC[C@]314 [Thebacon],178.2
13,CN(C)CC1CCCCC1(O)c1cccc(O)c1 (centres undefined) [Tramadol-M O-desmethyl],157.4
14,CC(C)(C)NCC(O)c1cc(Cl)c(N)c(Cl)c1 (centres undefined) [Clenbuterol],165.6
15,CN1C(=O)CN=C(c2ccccc2F)c2cc(N)ccc21 [Flunitrazepam-M 7-amino],163.1
16,CN1CC[C@]23c4c5ccc(O)c4O[C@H]2C(=O)CC[C@H]3[C@H]1C5 [Hydromorphone],163.9
17,CC(C)(C)NCC(O)c1ccccc1Cl (centres undefined) [Tulobuterol],150.5
18,COc1cc2nc(N3CCN(C(=O)C4COc5ccccc5O4)CC3)nc(N)c2cc1OC (centres undefined) [Doxazosin],202.9
19,COc1cc2c(cc1OC)C(=O)C(CC1CCN(Cc3ccccc3)CC1)C2 (centres undefined) [Donepezil],198.1
20,CNS(=O)(=O)CCc1ccc2[nH]cc(C3CCN(C)CC3)c2c1 [Naratriptan],174.3
21,COc1cc2c(cc1OC)C1CC(=O)C(CC(C)C)CN1CC2 (centres undefined) [Tetrabenazine],182.6

# Details: [M+H]+; instrument: DT; stepped-field
row,Structure (SMILES),collision cross section (N2) [Å²]
1,CC(C)C[C@H](NC(=O)[C@H](CC(C)C)NC(=O)[C@H](CCC(N)=O)NC(=O)[C@H](CC(N)=O)NC(=O)[C@@H](N)CC(C)C)C(=O)N[C@@H](CCCNC(=N)N)C(=O)O [LNQLLR],275.6

# Same assay, conditions: [M+K]+; instrument: DT; stepped-field
row,Structure (SMILES),collision cross section (N2) [Å²]
1,CCCCC/C=C\C/C=C\CCCCCCCCCC(=O)O[C@H](COC(=O)CCCCCCC/C=C\CCCCCCCCC)COP(=O)(O)OCCN [PE(39:3)],293.4
2,CC(=O)NC1C(OC2C(O)C(CO)OC(OC3C(CO)OC(O)C(O)C3O)C2O)OC(CO)C(O)C1OC1OC(CO)C(O)C(O)C1O (centres undefined) [HexNAc-(Hex)3],248.2

# Same assay, conditions: [M+Na-H2O]+; instrument: DT; stepped-field
row,Structure (SMILES),collision cross section (N2) [Å²]
1,CC(=O)NC1C(OC2C(O)C(CO)OC(OC3C(CO)OC(O)C(O)C3O)C2O)OC(CO)C(O)C1OC1OC(CO)C(O)C(O)C1O (centres undefined) [HexNAc-(Hex)3],244.9

# Same assay, conditions: [M+Na]+; instrument: DT; stepped-field
row,Structure (SMILES),collision cross section (N2) [Å²]
1,CCCCCCCCCCCCC=CC[C@@H](O)[C@H](CO[C@@H]1O[C@H](CO)[C@@H](O)C(O)C1O)NC(=O)CC=CCCCCCCCCCCCCCCCCCC (some centres undefined) [GlcCer(40:2)],297.1
2,CCCC=CCC=CCC=CCC=CCC=CCC(=O)OC[C@H](COP(=O)(O)OCC[N+](C)(C)C)OC(=O)CC=CCC=CCC=CCC=CCC=CCCC [PC(38:10)],295.9
3,CCCCCCCCCCCCC=CC[C@@H](O)[C@H](COP(=O)([O-])OCC[N+](C)(C)C)NC(=O)CCCCCCCCCCCCCCCCCCCCCCCCC [SM(44:1)],315.1
4,CC(=O)NC1C(OC2C(O)C(CO)OC(OC3C(CO)OC(O)C(O)C3O)C2O)OC(CO)C(O)C1OC1OC(CO)C(O)C(O)C1O (centres undefined) [HexNAc-(Hex)3],244
5,CCCC/C=C\CCCCCCCC(=O)OC[C@H](COP(=O)(O)OCCN)OC(=O)CCCCC/C=C\C/C=C\C/C=C\C/C=C\CCCCC [PE(36:5)],278.2
